In patent EP2508186A1, “Phenoxazinones or phenothiazones as inhibitors of amyloid formation” (Max-Delbrück-Centrum für Molekulare Medizin, priority 2011, dated 2012):
Like-named read-outs stand apart in the source and are kept apart here.

Key:
[1] = molecular target: T1, A11-reactive amyloid oligomers (Homo sapiens, UniProt P05067); experiment: Dot blot assay with conformation-specific antibody A11; type: biochemical; conditions: Aβ42 15 µM, 48 h at 37°C, 04 at 1:1 or 5:1 molar ratio
T1 construct: the amyloid-β 1-42 (Aβ42) peptide
T1 sequence (P05067 672-713 limits assumed): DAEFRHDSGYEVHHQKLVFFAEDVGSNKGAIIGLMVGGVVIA
Description: Finally, we examined the effect of 04 on potentially toxic amyloid oligomers that are recognized by the conformation-specific antibody A11 (Kayed, 2003). Soluble Aβ42 peptides were incubated in the presence and absence of 04 for 48 h at 37°C and the resulting aggregate species were analyzed by dot blot assays.

[2] = tested on: hippocampal rat brain slices; experiment: Hippocampal long-term potentiation (LTP) in brain slices, CA1 area; conditions: Aβ42 monomers and small oligomers added to slices, with 04; LTP evoked by high-frequency stimulation
Description: Finally, we investigated whether 04 treatment influences Aβ42-mediated impairment of hippocampal long-term potentiation (LTP) in rat brain slices (Wang, 2004; Walsh, 2002). A preparation of Aβ42 peptides containing monomers and small oligomers was added to hippocampal brain slices and LTP was measured in the CA1 area.

Aβ42 aggregates = molecular target: T2, Aβ42 aggregates (Homo sapiens, UniProt P05067); experiment: Dot blot assays of Aβ42 aggregates with antibodies 4G8, 6E10 and B10; type: biochemical; conditions: Aβ42 15 µM
T2 construct: the amyloid-β 1-42 (Aβ42) peptide
T2 sequence (P05067 672-713 limits assumed): as above
Description: 2.2.6. 04-generated amyloid fibrils have altered surface properties. We next examined whether 04 treatment influences the morphology of mature amyloid fibrils. […] of chemical compound and the resulting aggregates were analyzed with dot blot assays using the monoclonal antibodies 6E10 and 4G8, which specifically recognize amino acids 4-9 and 18-22 in Aβ42 peptides, respectively (Kim, 1988).
To confirm the observation that 04 alters surface properties of Aβ42 aggregates, we also examined whether 04-generated Aβ42 aggregates can be detected with the conformation specific antibody B10, which preferentially recognizes mature, β-sheet-rich amyloid fibrils and protofibrils, while monomers and low molecular oligomers are less efficiently detected (Habicht, 2007).

Aβ42 [3] = molecular target: T3, Aβ42 (Homo sapiens, UniProt P05067); experiment: Thioflavin T (ThT) seeding assay with 04-generated Aβ42 fibrils; type: biochemical; conditions: fibrils produced with equimolar or 5-fold excess 04, sonicated seeds 3 % v/v added to Aβ42 15 µM monomers
T3 construct: the amyloid-β 1-42 (Aβ42) peptide
T3 sequence (P05067 672-713 limits assumed): as above
Description: We also investigated whether 04-generated Aβ42 fibrils are indeed seeding-competent structures. Amyloid fibrils were produced in vitro in the presence and absence of 04 and added as seeds to an excess of unpolymerized Aβ42 monomers. The formation of β-sheet-rich amyloid fibrils was then monitored over time using a Thioflavin T (ThT) dye binding assay (LeVine, 1999). […] Thus, the β-sheet-rich Aβ42 fibrils produced in the presence of 04 are seeding-competent structures that efficiently promote amyloid fibrillogenesis.

Aβ42 oligomers = molecular target: T4, Aβ42 oligomers (Homo sapiens, UniProt P05067); experiment: Colorimetric dot blot binding assay on nitrocellulose membrane; conditions: for Kd: 04 0.4-200 µM, 15 min, read-out: apparent dissociation constant
T4 construct: the amyloid-β 1-42 (Aβ42) peptide
T4 sequence (P05067 672-713 limits assumed): as above
Description: 2.2.4. 04 converts small, unstable Aβ42 oligomers into larger SDS-stable protein aggregates. To examine whether 04 converts small Aβ42 oligomers into larger amyloid fibrils, we first tested whether the compound can bind to different types of preformed aggregate species. Peptide preparations highly enriched in Aβ42 monomers (Ehrnhoefer, 2008), spherical oligomers (Ma, 2006) or large amyloid fibrils (Ehrnhoefer, 2008) were produced and incubated with 04 for 15 minutes at room temperature. Then, samples were spotted onto a nitrocellulose membrane and after washing with buffer (non-denaturing conditions) 04 binding was examined. As 04 is a dye and blue in color its binding to amyloid aggregates can be detected colorimetrically (Fig. 3c).
Binding of 04 to Aβ42 oligomers was quantified colorimetrically (Fig. 5).

primary cortical neurons = experiment: Aβ42 toxicity in primary cortical neurons; type: cell-based; conditions: after addition of 04 to neuronal cultures
[4] = tested on: SH-SY5Y neuroblastoma cells; experiment: MTT assay of Aβ42 toxicity; type: cell-based; conditions: Aβ42 5 µM, different concentrations of 04, 48 h; Aβ42 alone ∼50% inhibition
Description: 2.2.8. 04-mediated acceleration of amyloidogenesis reduces Aβ42 toxicity in cell-based assays and brain slices. To study whether O4-mediated conversion of aggregation intermediates into stable amyloid fibrils influences Aβ42 toxicity, SH-SY5Y neuroblastoma cells were incubated for 48 h with soluble Aβ42 peptides and different concentrations of 04. Viability of cells was examined using a 3-(4,5-dimethylthiazol-2yl)-2,5-diphenyltetrazolium bromide (MTT) assay (Hansen, 1989).

Aβ42 [5] = molecular target: T3, Aβ42; experiment: SDS-PAGE (silver staining / immunoblotting) of Aβ42 aggregation products; type: biochemical
Description: 2.2.3. O4 promotes the formation of SDS-stable, protease-resistant protein aggregates. To investigate whether 04 treatment influences the stability of amyloid structures, we analyzed compound-treated Aβ42 aggregation reactions after 48 h with SDS-PAGE and silver staining (Fig. 3a). In the absence of 04, aggregation products resolved to monomers (-4 kDa), small oligomers (-10-12 and 14-16 kDa), medium-size oligomers (-100-150 kDa) and large aggregates (>250 kDa) in SDS gels, supporting previously published studies that Aβ42 monomers in vitro assemble into a heterogenous mixture of low and high molecular weight aggregate species (Bitan, 2003). However, in the presence of 04 an altered distribution of SDS-stable Aβ42 aggregate species was observed.
The effect of 04 on early aggregate species was also visible when treated and untreated Aβ42 preparations containing mainly small oligomers and protofibrils were analyzed after 24 h by SDS-PAGE and immunoblotting.
To investigate whether 04 treatment influences Aβ42 aggregate formation cell culture media were also analyzed by SDS-PAGE and silver staining (Fig. 9b). In-untreated samples, a relatively large amount of Aβ42 monomers (-4 kDa) and small oligomers (-12 kDa) was detected, while in 04 treated samples the concentration of these Aβ42 species was diminished.

B10 antibody binding to Aβ42 aggregates (Aβ42 aggregates; 48 h at 37°C, increasing concentrations of 04): reduced B10 binding ability
seeding competence of 04-generated Aβ42 fibrils (ThT fluorescence) (Aβ42 [3]): accelerate amyloid polymerization
Kd (Aβ42 oligomers; Aβ42 oligomers equivalent to monomer concentration 3 µM): 50 ± 2 µM
Kd (Aβ42 oligomers; Aβ42 oligomers equivalent to monomer concentration 6 µM): 25 ± 1 µM
Kd (Aβ42 oligomers; Aβ42 oligomers equivalent to monomer concentration 12 µM): 3.5 ± 0.1 µM
Hill coefficient n (Aβ42 oligomers; cooperative binding model fitted to the oligomer binding data): 4
Aβ42 monomers and small oligomers in cell culture media (SDS-PAGE, silver staining) (Aβ42 [5]; SH-SY5Y culture media, Aβ42 5 µM, 04 5 µM or 25 µM, 48 h): diminished
Structure (SMILES): O=c1cc2oc3cc(O)c(-c4ccc(O)cc4O)cc3nc-2cc1-c1ccc(O)cc1O [Compound 04, 2,8-bis-(2,4-dihydroxyphenyl)-7-hydroxy-phenoxazin-3-one]
A11-reactive oligomers [1]: detected in the absence but not in the presence of the chemical compound
Aβ42 oligomer block of LTP [2]: suppressed
recognition of Aβ42 aggregates by 4G8 antibody (Aβ42 aggregates; 5 d at 37°C with or without 04, no such effect with 6E10): less efficiently recognized by the 4G8 antibody
04 staining of Aβ42 monomers, oligomers and fibrils (Aβ42 oligomers; Aβ42 preparations 15 µM, 04 3, 15 and 75 µM, 15 min at room temperature, non-denaturing wash): readily stains oligomeric and fibrillar Aβ42 aggregates, while monomers were less efficiently detected
Aβ42-mediated cellular toxicity (primary cortical neurons): significantly reduced
Aβ42-caused inhibition of MTT reduction [4]: suppressed in a concentration-dependent manner
distribution of SDS-stable Aβ42 aggregate species (SDS-PAGE, silver staining) (Aβ42 [5]; Aβ42 15 µM, 04 1.5-150 µM, 48 h, 37°C, cell-free): the relative amount of medium-size, SDS-stable oligomers and large aggregates was increased, while the amount of monomers and small oligomers was decreased
assembly of higher molecular weight Aβ42 aggregates (SDS-PAGE, immunoblotting) (Aβ42 [5]; preformed Aβ42 oligomers 110 µM, 04 30, 100 and 300 µM, 24 h): stimulates the assembly of SDS-stable, higher molecular weight Aβ42 aggregates in a concentration-dependent manner
